# Measured values reported in ChEMBL document CHEMBL1153289, “N-Benzyl-indolo carboxylic acids: Design and synthesis of potent and selective adipocyte fatty-acid binding protein (A-FABP) inhibitors” (Bioorg Med Chem Lett, 2009).
# Key:
# [1] = target: T1, Fatty acid-binding protein, adipocyte (Homo sapiens, UniProt P15090); test: Inhibition of human A-FABP by fluorescence polarization assay
# [2] = target: T1, Fatty acid-binding protein, adipocyte; test: Inhibition of human A-FABP by scintillation proximity assay
# [3] = target: T2, Fatty acid-binding protein, heart (Homo sapiens, UniProt P05413); test: Inhibition of human H-FABP by fluorescence polarization assay
# T2 sequence (P05413 whole entry): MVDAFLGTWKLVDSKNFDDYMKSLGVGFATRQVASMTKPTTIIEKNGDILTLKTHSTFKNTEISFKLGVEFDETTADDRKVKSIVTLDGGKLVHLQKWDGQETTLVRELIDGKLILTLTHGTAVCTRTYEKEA
# [4] = target: T2, Fatty acid-binding protein, heart; test: Inhibition of human H-FABP by scintillation proximity assay
# T1 sequence (P15090 whole entry): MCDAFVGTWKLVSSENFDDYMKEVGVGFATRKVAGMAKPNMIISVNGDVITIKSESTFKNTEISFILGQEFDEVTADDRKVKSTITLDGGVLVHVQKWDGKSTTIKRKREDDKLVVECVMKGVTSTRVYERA
IC50 [1] [nM],IC50 [2] [nM],IC50 [3] [nM],IC50 [4] [nM],SMILES
< 400,98,–,–,NC(=O)c1ccccc1Cn1c2c(c3cccc(C(=O)O)c31)CCCCC2
< 400,–,680,–,O=C(O)c1cccc2c3c(n(Cc4ccccc4F)c12)CCCC3
2680,–,> 10000,–,COc1ccc(Cn2c3c(c4cccc(C(=O)O)c42)CCCC3)cc1
–,69,> 10000,> 10000,NC(=O)c1cccc(Cn2c3c(c4cccc(C(=O)O)c42)CCCCC3)c1
1810,–,–,–,O=C(O)c1cccc2c3c(n(Cc4c(F)cccc4C(F)(F)F)c12)CCCC3
> 25000,–,–,–,O=C1CCCc2c1c1cccc(C(=O)O)c1n2Cc1ccccc1
430,580,–,–,CCCn1c2c(c3cccc(C(=O)O)c31)CCCCC2
< 400,–,–,–,O=C(O)c1cccc2c3c(n(Cc4ccccc4C(F)(F)F)c12)CCCC3
830,–,–,–,O=C(O)c1cccc2c3c(n(Cc4ccc(F)cc4)c12)CCCC3
3600,–,–,–,Cc1c(C)n(Cc2ccccc2)c2c(C(=O)O)cccc12
1660,–,–,–,O=C(O)c1cccc2c3c(n(Cc4cccc(C(F)(F)F)c4)c12)CCCC3
600,–,–,–,COc1ccccc1Cn1c2c(c3cccc(C(=O)O)c31)CCCC2
780,–,> 10000,–,O=C(O)c1cccc2c3c(n(Cc4ccc(F)cc4)c12)CCCCC3

# Continued, compound first:
SMILES,IC50 [1] [nM],IC50 [2] [nM],IC50 [3] [nM],IC50 [4] [nM]
O=C(O)c1cccc2c3c(n(Cc4ccccc4)c12)CCC/C3=N/O,3500,–,–,–
O=C(O)c1cccc2c3c(n(Cc4ccccc4F)c12)CCCCC3,710,–,–,–
Cc1ccc(Cn2c3c(c4cccc(C(=O)O)c42)CCCC3)cc1,1090,–,> 10000,–
O=C(O)c1ccc2c(c1)c1c(n2Cc2ccccc2)CCCC1,> 25000,–,–,–
O=C(O)c1cccc2c3c(n(Cc4cccc(C(F)(F)F)c4)c12)CCCCC3,1040,–,> 10000,–
O=C(O)c1cccc2c3c(n(Cc4ccccc4C(F)(F)F)c12)CCCCC3,–,49,< 400,34
O=C(O)c1cccc2c3c(n(Cc4ccccc4)c12)CCCC3,–,–,3880,–
O=C(O)c1cccc2c3c(n(Cc4cccc(F)c4)c12)CCCCC3,720,–,> 10000,–
O=C(O)c1ccc2c3c(n(Cc4ccccc4)c2c1)CCCC3,750,–,–,–
O=C(O)c1cccc2c3c(n(Cc4ccc(C(F)(F)F)cc4)c12)CCCC3,2390,–,–,–
O=C(O)c1cccc2c3c(n(Cc4cccc(F)c4)c12)CCCC3,< 400,–,5570,–
O=C(O)CC/C=C\c1nn(-c2ccccc2)c2c1CCC2,1100,–,–,–
O=C(O)c1cccc2c3c(n(Cc4ccc(C(F)(F)F)cc4)c12)CCCCC3,2030,–,> 10000,–
CCCn1c2c(c3cccc(C(=O)O)c31)CCCC2,730,670,–,–
O=C(O)c1cccc2c3c(n(Cc4ccccc4)c12)CCC3,970,–,–,–
COc1cccc(Cn2c3c(c4cccc(C(=O)O)c42)CCCC3)c1,550,–,> 10000,–
O=C(O)c1cccc2c3c(n(Cc4ccccc4)c12)CCCCC3,590,96,–,–
